Measurements reported in patent US20120302530A1, “23-HYDROXY-BETULINIC ACID DERIVATIVES, PREPARATION METHODS AND USES THEREOF” (priority 2009, published 2012).
Like-named read-outs stand apart in the source and are kept apart here.

Experiments:
[1] = tested on: normal mice fibroblast (MEF); test: MTT cytotoxicity, normal cell strain; type: cell-based, mouse; details: for EC50: Normal Mouse Fibroblast, 72 hours, MTT; for sensitivity of normal cells to the compounds: concentration up to 30 μm, cells can still grow well
[2] = tested on: C8166 (human T cell line); test: Toxicity to C8166 cells (MTT, day 7); type: cell-based; details: Homo sapiens, read-out: IC50 (50% inhibition concentration) to C8166 cell
Procedure: (2) Toxicity of compounds zhangnan-5, zhangnan-7 and zhangnan-8 to C8166 and PBMC cells:
C8166 (human T cell line) and PBM (using lymphocyte isolation liquid to separate from normal human peripheral blood, and adhered mononuclear cell separated from PBMC) cells in exponential phase are taken. The cells are resuspended after centrifugal (1000 r•min-1, 10 min), and the concentrations are adjusted to 4×10^5/ml and 2×10^6/ml. The test samples are double diluted on the 96-hole cell culture plate. In total 6 gradients are set, each having 3 duplicate holes. In addition, positive control group and cell control group are set. Upon adding cell suspended liquid, the test samples are placed in incubator of 370C and 5% CO2 for incubation. On the seventh (7th) day, MTT method is used to determine toxicity of the samples to cells.
Inhibition ratio of cell growth (%)=(1−experimental hole OD value/control hole (OD value)×100%

[3] = tested on: normal human epithelium of mammary gland (MCF-10a); test: MTT cytotoxicity, normal cell strain; type: cell-based; details: for EC50: Homo sapiens, Normal Mammary Gland Epithelial Cell, 72 hours, MTT; for sensitivity of normal cells to the compounds: concentration up to 30 μm, cells can still grow well
HIV-1IIIB = test: Inhibition of HIV-1IIIB induced syncytium formation in C8166 cells; type: cell-based; details: for therapeutic index TI: HIV-1IIIB syncytium, C8166, TI=IC50/EC50; for EC50: Human immunodeficiency virus 1, HIV-1IIIB, C8166 cells, third day after infection
From the text: (3) The inhibition effects of compounds zhangnan-5, zhangnan-7 and zhangnan-8 to virus HIV-1IIIB inducing C8166 cell to form syncytium: (see JIANG, Haiou; WANG, Xu; L I, Rurun; CHEN, Dagang; B I, Kunlong, Experimental Research on Recipe Sanhuangsan Capsule for Resisting AIDS virus in Vitro, [J]. Shandong Journal of Traditional Chinese medicine, 2005.8 (1):21-26).
The test sample is double diluted with culture medium on the 96-hole flat culture plate. There are 8 dilutions in total. Each hole 100 ul has 2 duplicate holes. In addition, there are positive control group, cell control group and virus control group. 80 ul C8166 cell of 4×10^5/ml is added into each hole, and then 20 ul virus HIV-1IIIB supernatant is added into each hole. The final volume of each hole is 200 ul. The sample is placed in incubator of 370C, 5% CO2 for cultivation. […] Under the inverted microscope, the number of syncytium formed by virus HIV-1IIIB inducing C8166 cell is counted. […] The following formula is used to calculate the inhibition ratio of the sample to syncytium.
Inhibition ratio formed by syncytium (%)=(1−experimental hole syncytium number/control hole syncytium number)×100%

MCF-7 = test: MTT cytotoxicity, human tumor cell strain; type: cell-based; details: MCF7, MCF-7, Mammary Gland, 72 hours
From the text: (§1) We use human tumor cell lines to conduct cytotoxicity analysis. Thirty-one (31) kinds of human tumor cell strains are cultivated in the normal culture medium containing various compounds of zhangnan-5, zhangnan-7 and zhangnan-8. The human tumor lines are bought from ATCC and NCI, and is cultivated with DMEM culture solution containing 10% FBS in 370C couveuse containing 5% CO2. The merged cells are digested by trypsinase, and are counted after washed by the culture solution. 3000˜6000 cells are added into each hole of the 96-hole culture plate, and are hatched for 16 hours or 24 hours. Then, compounds zhangnan-5, zhangnan-7 and zhangnan-8 with different concentrations are added into the holes. Upon further cultivated for another 72 hours, MTT tests are conducted to cells in group treated with drugs and the control group cells, to determine the survival condition of the cells.

NCI-H23 = test: MTT cytotoxicity, human tumor cell strain; type: cell-based; details: NCI-H23, Lung, 72 hours
From the text: as §1

SK-MEL-5 = test: MTT cytotoxicity, human tumor cell strain; type: cell-based; details: SK-MEL-5, Skin (melanoma), 72 hours
From the text: as §1

Caki-1 = test: MTT cytotoxicity, human tumor cell strain; type: cell-based; details: Caki-1, Kidney, 72 hours
From the text: as §1

BT-549 = test: MTT cytotoxicity, human tumor cell strain; type: cell-based; details: BT-549, Mammary Gland, 72 hours
From the text: as §1

SGC-7901 = test: MTT cytotoxicity, human tumor cell strain; type: cell-based; details: SGC-7901, Stomach, 72 hours
From the text: as §1

U-251 = test: MTT cytotoxicity, human tumor cell strain; type: cell-based; details: U-251, Malignant Glioma, 72 hours
From the text: as §1

Mid PaCa-2 = test: MTT cytotoxicity, human tumor cell strain; type: cell-based; details: Mid PaCa-2, Pancreatic Gland, 72 hours
From the text: as §1

HIV-1Ada-M = test: ELISA of HIV-1Ada-M p24 antigen expression in PBMC; type: cell-based; details: for therapeutic index TI: HIV-1Ada-M p24, PBMC, TI=IC50/EC50; for EC50: Human immunodeficiency virus 1, HIV-1Ada-M, PBMC, 7th day, ELISA, read-out: EC50, inhibition of p24 antigen expression
From the text: (4) Quantitative Enzyme Linked Immunoadsorbent method (EIISA) detecting inhibiting effects of compounds to virus HIV-1Ada-Mp24 expression: (see JIANG, Haiou; WANG, Xu; L I, Rurun; CHEN, Dagang; B I, Kunlong, Experimental Research on Recipe Sanhuangsan Capsule Resisting AIDS Virus in Vitro, [J], Shandong Journal of Traditional Chinese medicine, 2005.8 (1):21-26).
Multi-heads sample injector is used to conduct triple dilution to the sample on the 96-hole culture plate. There are 6 dilutions, in which each dilution has 3 duplicate holes, and each hole is 100 ul. […] On the 96-hole flat culture plate, each hole is added with 25 ul virus stock solution containing 1000˜5000 pg/well P24 antigen, which is sufficiently blended. 75 ul mononuclear cell PBMC suspension liquid is added (3×10^5 cell numbers/hole). Upon placing in incubator of 37° C., 5% CO2 to the third day, 100 ul of culture medium is added to each hole. On the 7th day, cell culture supernatant is collected for p24 antigen test. According to p24 kit description, ELISA method is used to measure the virus HIV-1 p24 antigen concentration of each sample cell culture hole supernatant. The following formula is used to calculate the inhibition ratio of sample to virus.
Inhibition ratio of sample to virus p24 antigen (%)=(1−experimental hole OD value/cell+virus control hole OD value)×100%. Reed and Mueneh method is used to calculate EC50 of the test sample, and to further calculate the therapeutic index (TI) (TI=IC50/EC50). […] The positive control SCH-C, 23-hydroxyl-betulinic acid, compounds zhangnan-5, zhangnan-7 and zhangnan-8 all reach an inhibition ratio above 50% within the tested range. The positive control SCH-C inhibits HIV-1Ada-M p24 antigen expression. […] In addition, the inhibition effect to HIV-1Ada-M has significant dose-effect relationship with its concentration.

Compound | EC50 [1] | sensitivity of normal cells to the compounds [1] | IC50 ([2]; C8166, 168 h) | EC50 [3] | sensitivity of normal cells to the compounds [3] | therapeutic index TI (HIV-1IIIB) | EC50 (HIV-1IIIB) | EC50 (MCF-7) | EC50 (NCI-H23) | EC50 (SK-MEL-5) | EC50 (Caki-1) | EC50 (BT-549) | EC50 (SGC-7901) | EC50 (U-251) | EC50 (Mid PaCa-2) | therapeutic index TI (HIV-1Ada-M) | EC50 (HIV-1Ada-M) | IC50 ([2]; 168 h, C8166, day 7, MTT)
C=C(C)C1CCC2(C(=O)O)CCC3(C)C(CCC4C5(C)CCC(=O)C(C)(CO)C5CCC43C)C12 (stereo not drawn) [zhangnan-5] | > 30 µM | not sensitive | 2.3 ± 0.47 µM | > 30 µM | not sensitive | 4.6 | 0.5 ± 0.07 µM | 0.58 µM | 0.32 µM | 0.093 µM | 0.98 µM | 0.67 µM | 0.89 µM | 0.089 µM | 0.93 µM | 3.4 | 0.7 ± 0.19 µM | –
CC(C)C1CCC2(C(=O)O)CCC3(C)C(CCC4C5(C)CCC(=O)C(C)(CO)C5CCC43C)C12 (stereo not drawn) [zhangnan-7] | > 30 µM | not sensitive | – | > 30 µM | not sensitive | 13158 | 0.0019 ± 0.0002 µM | 16.9 µM | 12.8 µM | 18.5 µM | 20.1 µM | 17.4 µM | 18.5 µM | 17.8 µM | 18.9 µM | 9923 | 0.0026 ± 0.0005 µM | 25 ± 5.2 µM
CC(C)C1CCC2(C(=O)O)CCC3(C)C(CCC4C5(C)CCC(O)C(C)(CO)C5CCC43C)C12 (stereo not drawn) [zhangnan-8, 23-hydroxyl-dihydrobetulinic acid] | > 30 µM | not sensitive | – | > 30 µM | not sensitive | 9.4 | 1.1 ± 0.09 µM | 7.8 µM | 6.7 µM | 4.9 µM | 9.2 µM | 7.4 µM | 8.9 µM | 5.6 µM | 9.4 µM | 7.3 | 1.6 ± 0.23 µM | 10.3 ± 2.9 µM
